Source: article PMC5494507, “γ‐Secretase inhibitors in cancer clinical trials are pharmacologically and functionally distinct” (EMBO Molecular Medicine, 2017)

How the values were obtained:
rAPPC100sub = experiment: Cell-free γ-secretase assay, rAPPC100sub (IP-MS), low-dose potentiation; type: biochemical; conditions: in vitro assay, recombinant substrate
Excerpt: We next tested all GSIs on cAPPC100sub and full‐length APP stably overexpressing cells. […] The low‐dose potentiation of γ‐secretase cleavage was further mechanistically probed using in vitro assays with recombinant substrates and IP‐MS.

[1] = tested on: rAPPC100sub and rNOTCH1‐4subs; experiment: Cell-free γ-secretase assay, rAPPC100sub and rNOTCH1-4subs (IP-MS); type: biochemical, human; conditions: 25 nM
Protocol: cDNAs encoding NOTCH1, NOTCH2, NOTCH3, NOTCH4, CD44, and VEGFR1 γ‐secretase substrates were generated by gene synthesis conducted by Genscript (Piscataway, NJ, USA). The general design of the constructs was similar to a recombinant substrate (APP C100) that has been used by our group and others to assay Aβ production in in vitro γ‐secretase assays. All constructs contain an NH2‐terminal amyloid β peptide (Aβ) epitope tag followed by the juxtamembrane region (JMD) of the given substrate and a FLAG tag ([…]) at the COOH‐terminal. A schematic representation of the substrates is provided in Fig 1A, and sequences of the cDNAs and the proteins are provided in Appendix Fig S5. For clarity, these substrates are referred to as recombinant substrates (e.g., Notch1 is rNOTCH1sub). Substrate cDNAs were cloned into pET21 (Novagen, Billerica, MA, USA) for expression in bacterial cells.
pET21 plasmids containing the substrate cDNAs were transformed into BL21 E. coli. cells. Overexpression was induced with 0.5 mM isopropyl β‐D‐1‐thiogalactopyranoside (IPTG). […]
Immunoprecipitation and mass spectrometry of Aβ and Aβ‐like peptides in cell‐free assay or conditioned media were performed as previously described (Ran et al, 2014). […] Samples were analyzed using a Bruker Microflex LRF‐MALDI‐TOF mass spectrometer.

[2] = tested on: MDA‐MB‐231 and MDA‐MB‐468 mammospheres; experiment: Secondary mammosphere formation / limiting dilution assay and CD44+CD24low flow cytometry; type: cell-based
Protocol: Suppression of breast cancer stem cells is thought to be a key mechanism of action for the anti‐tumor activity of GSIs in breast cancer models and in patient‐derived mammospheres (Takebe et al, 2015). […] Stem‐like cells are enriched in secondary mammospheres, but their number declines after four to five passages (Dontu et al, 2003; Dey et al, 2009). Therefore, we compared the GSIs in a secondary mammosphere formation assay at 1, 5, and 10 μM concentrations (Fig 7A and B for 10 μM and Appendix Fig S4 for 1 and 5 μM). We separately counted large mammospheres (> 500 μm in diameter) and small mammospheres (100–500 μm in diameter).
For limiting dilution assay, we used two distinct TNBC cell lines. MDA‐MB‐231 is molecularly “Mesenchymal”, PTEN wild type. MDA‐MB‐468 (ATCC, Manassas, VA) is molecularly “Basal‐like” and PTEN null. GSI‐treated (1, 5, and 10 μM twice/week, for 1 week) mammospheres were dissociated by trypsinization, and equal numbers of viable cells were re‐plated at clonal density (1,000, 100, and 10 cells) without GSIs. After 7‐day incubation, large mammospheres (> 500 μm) and small mammospheres (100–500 μm) were counted manually using a Nikon Eclipse Microscope. Next, we investigated whether PF‐3084014 selectively affected cancer stem‐like cells (CSCs) using both MDA‐MB‐231 and MDA‐MB‐468 cell lines. Mammospheres were treated with increasing concentration of PF‐3084014 for 1 week, and CSCs (CD44^+CD24^low) (Azzam et al, 2013) were analyzed by flow cytometry using anti‐human PE‐CD44 (Clone G44‐26) and FITC‐CD24 (Clone ML5) (BD Biosciences) antibody.

| Structure (SMILES) | concentration at which cleavage from rAPPC100sub was potentiated (rAPPC100sub) [nM] | cleavage of the rAPPC100sub and rNOTCH1‐4subs [1] | absolute cell counts of mammospheres ([2]; 5 and 10 μM, both cell lines) | percentage of CD44+CD24low cells ([2]; all concentrations tested, flow cytometry) | total cell number and CSC fraction ([2]; both cell lines, 1 week treatment) | absolute numbers of CD44+CD24low cells ([2]; flow cytometry) |
| --- | --- | --- | --- | --- | --- | --- |
| CN1C(=O)[C@@H](NC(=O)[C@H](CCC(F)(F)F)[C@H](CCC(F)(F)F)C(N)=O)N=C(c2ccccc2)c2ccccc21 [BMS‐906024] | 0.03 | completely blocked cleavage |  |  |  |  |
| CCC[C@H](N[C@H]1CCc2cc(F)cc(F)c2C1)C(=O)Nc1cn(C(C)(C)CNCC(C)(C)C)cn1 [PF‐3084014] |  |  | significantly more potent than the other compounds | decrease in percentage | decreased the total cell number and the CSC fraction | dose‐dependent decrease |
| CC(C)[C@H](O)C(=O)N[C@@H](C)C(=O)N[C@@H]1C(=O)N(C)CCc2ccccc21 [Semagacestat] | 0.16 |  |  |  |  |  |
